Test results: patent publication US8119624B2, “Fused phenyl amido heterocyclic compounds” (Pfizer Inc., priority 2006, dated 2012)

Molecular target: T1, Full-length glucokinase (beta cell isoform) (Homo sapiens, UniProt P35557)
T1 construct: Full-length glucokinase (beta cell isoform) was His-tagged at N-terminus; His tag (N); made in house
T1 sequence (P35557 1-465): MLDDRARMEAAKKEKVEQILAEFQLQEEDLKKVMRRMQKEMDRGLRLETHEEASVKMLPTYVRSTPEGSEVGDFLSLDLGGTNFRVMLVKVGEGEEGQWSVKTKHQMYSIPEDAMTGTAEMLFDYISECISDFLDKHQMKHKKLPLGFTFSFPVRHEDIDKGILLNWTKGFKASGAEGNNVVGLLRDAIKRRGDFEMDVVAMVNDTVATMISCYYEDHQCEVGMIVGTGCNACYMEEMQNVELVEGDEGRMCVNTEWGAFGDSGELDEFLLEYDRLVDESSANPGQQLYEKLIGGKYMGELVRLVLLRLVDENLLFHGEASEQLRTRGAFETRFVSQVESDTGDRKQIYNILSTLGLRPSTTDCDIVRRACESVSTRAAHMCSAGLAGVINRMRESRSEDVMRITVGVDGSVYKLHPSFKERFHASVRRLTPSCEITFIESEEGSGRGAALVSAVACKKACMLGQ
Experiment: Glucokinase biochemical assay (PK/LDH-coupled, NADH depletion at 340 nm): % activation, EC50, % max activation
Details: 5 mM glucose, 1 mM ATP; for EC50 / activation at 10 µM: room temperature; for EC50: read-out: EC50; for activation at 10 µM: compound at 10 uM, read-out: % Activation at 10 uM; for Emax: fitted maximum activation, read-out: % Max Activation
Method in brief: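 N-terminally His-tagged full-length human beta-cell glucokinase, room temperature, 5 mM glucose, 1 mM ATP, PK/LDH-coupled with 0.7 mM NADH, 1% DMSO final. Initial velocity from the 200–900 s slope of A340 decline. % activation = (Va/Vo−1)×100, measured across compound concentrations.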

| EC50 [nM] | activation at 10 µM [%] | Emax [%] | SMILES |
| --- | --- | --- | --- |
| 3000 | 81 | 132 | Cc1ccc(NC(=O)c2cc(Oc3ccc(S(C)(=O)=O)cc3)c3c(c2)C(=O)N(CC(C)C)C3)nc1 [Example 381, 2-Isobutyl-N-(5-methylpyridin-2-yl)-7-(4-(methylsulfonyl)-phenoxy)-3-oxoisoindoline-5-carboxamide] |
| 9300 | 82 | 156 | CC(C)CN1Cc2c(Oc3ccc(S(C)(=O)=O)cc3)cc(C(=O)Nc3ccn(C)n3)cc2C1=O [Example 382, 2-Isobutyl-N-(1-methyl-1H-pyrazol-3-yl)-7-(4-(methylsulfonyl)-phenoxy)-3-oxoisoindoline-5-carboxamide] |
|  | 32.6 |  | Cc1ccc(NC(=O)c2cc(Oc3ccc(S(C)(=O)=O)cc3)c3c(c2)C(=O)N(C(C)C)C3)nc1 [Example 383, 2-Isopropyl-N-(5-methylpyridin-2-yl)-7-(4-(methylsulfonyl)-phenoxy)-3-oxoisoindoline-5-carboxamide] |
|  | 33.2 |  | CC(C)N1Cc2c(Oc3ccc(S(C)(=O)=O)cc3)cc(C(=O)Nc3ccn(C)n3)cc2C1=O [Example 384, 2-Isopropyl-N-(1-methyl-1H-pyrazol-3-yl)-7-(4-(methylsulfonyl)-phenoxy)-3-oxoisoindoline-5-carboxamide] |
| 4500 | 93.2 | 107 | Cc1ccc(NC(=O)c2cc(Oc3ccc(S(C)(=O)=O)cc3)c3c(c2)C(=O)N(C2CC2)C3)nc1 [Example 385, 2-Cyclopropyl-N-(5-methylpyridin-2-yl)-7-(4-(methylsulfonyl)-phenoxy)-3-oxoisoindoline-5-carboxamide] |
| > 10000 | 78.8 |  | Cn1ccc(NC(=O)c2cc(Oc3ccc(S(C)(=O)=O)cc3)c3c(c2)C(=O)N(C2CC2)C3)n1 [Example 386, 2-Cyclopropyl-N-(1-methyl-1H-pyrazol-3-yl)-7-(4-(methylsulfonyl)-phenoxy)-3-oxoisoindoline-5-carboxamide] |
| > 10000 | 42.9 |  | COCCN1Cc2c(Oc3ccc(S(C)(=O)=O)cc3)cc(C(=O)Nc3ccc(C)cn3)cc2C1=O [Example 387, 2-(2-Methoxyethyl)-N-(5-methylpyridin-2-yl)-7-(4-(methylsulfonyl)-phenoxy)-3-oxoisoindoline-5-carboxamide] |
|  | 39.7 |  | COCCN1Cc2c(Oc3ccc(S(C)(=O)=O)cc3)cc(C(=O)Nc3ccn(C)n3)cc2C1=O [Example 388, 2-(2-Methoxyethyl)-N-(1-methyl-1H-pyrazol-3-yl)-7-(4-(methylsulfonyl)-phenoxy)-3-oxoisoindoline-5-carboxamide] |
|  | 32.9 |  | CC(C)CN1CCc2c(Oc3ccc(S(C)(=O)=O)cc3)cc(C(=O)Nc3ccn(C)n3)cc2C1=O [Example 389, 2-Isobutyl-N-(1-methyl-1H-pyrazol-3-yl)-5-[4-(methylsulfonyl)-phenoxy]-1-oxo-1,2,3,4-tetrahydroisoquinoline-7-carboxamide] |
|  | 28.9 |  | Cc1ccc(NC(=O)c2cc(Oc3ccc(S(C)(=O)=O)cc3)c3c(c2)C(=O)N(C)CC3)nc1 [Example 390, 2-Methyl-N-(5-methylpyridin-2-yl)-5-(4-(methylsulfonyl)-phenoxy)-1-oxo-1,2,3,4-tetrahydroisoquinoline-7-carboxamide] |
| > 10000 | 45.2 |  | Cc1ccc(NC(=O)c2cc(Oc3ccc(S(C)(=O)=O)cc3)c3c(c2)C(=O)N(CC(C)C)CC3)nc1 [Example 391, 2-Isobutyl-N-(5-methylpyridin-2-yl)-5-(4-(methylsulfonyl)-phenoxy)-1-oxo-1,2,3,4-tetrahydroisoquinoline-7-carboxamide] |
| > 10000 | 48.6 |  | CC(C)CN1CCc2c(Oc3ccc(C(=O)N(C)C)c(F)c3)cc(C(=O)Nc3ccn(C)n3)cc2C1=O [Example 392, 5-(4-(Dimethylcarbamoyl)-3-fluorophenoxy)-2-isobutyl-N-(1-methyl-1H-pyrazol-3-yl)-1-oxo-1,2,3,4-tetrahydroisoquinoline-7-carboxamide] |
|  | 32 |  | Cc1ccc(NC(=O)c2cc(Oc3ccc(S(C)(=O)=O)cc3)c3ccn(C)c(=O)c3c2)nc1 [Example 394, 2-Methyl-N-(5-methylpyridin-2-yl)-5-(4-(methylsulfonyl)-phenoxy)-1-oxo-1,2-dihydroisoquinoline-7-carboxamide] |
| 360 | 204 | 212 | Cn1ccc(NC(=O)c2cc(Oc3cnc(C(=O)N4CCC4)cn3)c3c(c2)OC(C)(C)C3)n1 [Example 396, 4-[5-(Azetidine-1-carbonyl)-pyrazin-2-yloxy]-2,2-dimethyl-2,3-dihydro-benzofuran-6-carboxylic acid(1-methyl-1H-pyrazol-3-yl)-amide] |
| 83 | 213 | 202 | Cn1ccc(NC(=O)c2cc(Oc3ccc(C(=O)N4CC(F)C4)nc3)c3c(c2)OC(C)(C)C3)n1 [Example 397, 4-[6-(3-Fluoro-azetidine-1-carbonyl)-pyridin-3-yloxy]-2,2-dimethyl-2,3-dihydro-benzofuran-6-carboxylic acid(1-methyl-1H-pyrazol-3-yl)-amide] |
| 56 | 128 | 114 | Cn1ccc(NC(=O)c2cc(Oc3ccc(C(=O)N4CCCC4)nc3)c3c(c2)OC(C)(C)C3)n1 [Example 398, 2,2-Dimethyl-4-[6-(pyrrolidine-1-carbonyl)-pyridin-3-yloxy]-2,3-dihydro-benzofuran-6-carboxylic acid(1-methyl-1H-pyrazol-3-yl)-amide] |
| 610 | 212 | 231 | CN(CC#N)C(=O)c1ccc(Oc2cc(C(=O)Nc3ccn(C)n3)cc3c2CC(C)(C)O3)cn1 [Example 399, 5-[2,2-Dimethyl-6-(1-methyl-1H-pyrazol-3-ylcarbamoyl)-2,3-dihydro-benzofuran-4-yloxy]-pyridine-2-carboxylic acid cyanomethyl-methyl-amide] |
| 140 | 192 | 177 | CNC(=O)c1c(F)cc(Oc2cc(C(=O)Nc3ccn(C)n3)cc3c2CC(C)(C)O3)cc1F [Example 400, 4-(3,5-Difluoro-4-methylcarbamoyl-phenoxy)-2,2-dimethyl-2,3-dihydro-benzofuran-6-carboxylic acid(1-methyl-1H-pyrazol-3-yl)-amide] |
| 121 | 196 | 191 | Cn1ccc(NC(=O)c2cc(Oc3cnc(C(=O)N4CC(F)C4)c(F)c3)c3c(c2)OC(C)(C)C3)n1 [Example 403, 4-(5-fluoro-6-(3-fluoroazetidine-1-carbonyl)pyridin-3-yloxy)-2,2-dimethyl-N-(1-methyl-1H-pyrazol-3-yl)-2,3-dihydrobenzofuran-6-carboxamide] |
